Data published in patent US12509430B2, “Inhibitors of nicotinamide N-methyltransferase, compositions and uses thereof” (President and Fellows of Harvard College, priority 2020, dated 2025).
Like-named read-outs stand apart in the source and are kept apart here.

Assays:
[1] = target: T1, recombinant human NNMT (Homo sapiens, UniProt P40261); experiment: in vitro NNMT enzyme inhibition assay (Promega MTase-Glo Methyltransferase Assay); format: biochemical
T1 sequence (P40261 1-264): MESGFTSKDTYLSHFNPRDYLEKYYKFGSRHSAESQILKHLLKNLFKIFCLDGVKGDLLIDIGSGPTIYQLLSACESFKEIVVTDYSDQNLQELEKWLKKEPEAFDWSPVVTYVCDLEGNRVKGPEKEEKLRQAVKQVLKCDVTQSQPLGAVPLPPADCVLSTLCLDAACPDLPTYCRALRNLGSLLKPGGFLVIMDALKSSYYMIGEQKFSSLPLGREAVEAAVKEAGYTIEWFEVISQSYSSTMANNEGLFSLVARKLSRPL
Procedure: NNMT biochemical activity for was evaluated using the Promega Mtase-Glo Methyltransferase Assay kit. Assays were performed in a white, flat-bottomed 96 well plate. […] Reactions were performed for 20 minutes at room temperature. MTase-Glo reagent and MTase-Glo detection solution were added according to manufacturer's instructions and luminescence signal measured with a SpectraMax i3 plate reader and data analyzed with GraphPad Prism version 8. FIG. 14 depicts a visual summary of the Promega MTase-Glo Methyltransferase assay used to assess biochemical activity of novel inhibitors.

[2] = system: 3T3L-1; experiment: Cellular Activity IC50 (3T3L-1); format: cell-based; conditions: Mus musculus, 3T3-L1
[3] = system: U2OS; experiment: Cellular Activity IC50 (U2OS); format: cell-based; conditions: Homo sapiens
[4] = Microsomal stability, mouse microsomes with NADPH (Phase I); format: in vitro ADME; conditions: mouse liver microsomes; for CLhep predicted at 2 μM: read-out: Predicted hepatic Clint; for CLint scaled at 2 μM: read-out: Scaled-up CLint
Procedure: (§1) The metabolism of Compounds 4 and 13 was evaluated using a microsomal stability assay. Briefly, a master solution was prepared according to Tables 5 and 6.
(§2) The final concentrations of NADPH was 1 mM. […] Samples with NADPH were prepared in duplicate. Negative controls were prepared in singlet.
(§3) Verapamil was used as positive control in this study. The final concentration of test compound or control compound was 2 μM.
(§4) Aliquots of 50 μL were taken from the reaction solution at 0, 15, 30, 45 and 60 minutes.

[5] = system: 1-Methylnicotinamide (1-MNA); experiment: In vivo pharmacodynamics, plasma 1-MNA in female C57B16/N mice after inhibitor dosing; design: species or system mouse
Procedure: 1-Methylnicotinamide (1-MNA) concentrations were also determined.
Then the samples were vortexed for 30 s.

[6] = Microsomal stability, human microsomes with NADPH (Phase I); format: in vitro ADME; conditions: human liver microsomes; for CLhep predicted at 2 μM: read-out: Predicted hepatic Clint; for CLint scaled at 2 μM: read-out: Scaled-up CLint
Procedure: as §1, §2, §3, §4

[7] = In vivo pharmacokinetics, plasma concentration of inhibitor in female C57B16/N mice
Source text: Doses were freshly prepared on the day of dosing.

[8] = target: T2, NNMT in K562 cells (Homo sapiens, UniProt P40261); experiment: Cellular inhibition of NNMT in K562 cells by 1-MNA quantification; format: cell-based
T2 construct: In K562 cells, which express NNMT; host or cells: K562
T2 sequence (P40261 1-264): T1 sequence (P40261 1-264)
Procedure: Cellular activity was measured in K562 (ATCC) cells via measuring (1-methyl nicotinamide) 1-MNA levels after compound incubation at varying concentrations overnight. […] Cells were collected by pipetting and extracted with 200 ul acetonitrile containing internal deuterated standard 10 ng/ml d4-1-MNA. […] The mobile phase A was 2.5 mM ammonium formate in water, and mobile phase B was methanol with 0.1% formic acid, delivered at 0.25 mL/min. The capillary voltage was set to 2400V and the nozzle at 300V. The drying gas temperature was 240° C., the drying gas flow rate was 4 L/min, and the nebulizer pressure was 40 psi. The mass spectrometer was run in multiple reaction monitoring mode.
(§5) All cells were cultured at 37° C. in a humidified incubator buffered with 5% CO2. K562 cells were maintained in RPMI supplemented with 10% fetal bovine serum (FBS). Ovarian CAFs were maintained in MSC-Gro Vitroplus III for proliferation and in DMEM containing 10 μM methionine with 10% dialyzed FBS for experiments. K562 were purchased from ATCC. Ovarian CAFs were purchased from Neuromics.

[9] = Microsomal stability, mouse microsomes with NADPH and UDPGA (Phase II); format: in vitro ADME; conditions: mouse liver microsomes, NADPH & UDPGA
Procedure: as §1
(§6) For the assay with NADPH and UDPGA (Phase II), 40 μL of 10 mM NADPH solution and 40 μL of 20 mM UDPGA solution were added to each well. The final concentrations of NADPH and UDPGA were 1 mM and 2 mM. […] The negative control samples were prepared by replacing cofactors (NADPH and UDPGA) solution with 80 μL of ultra-pure H2O. Samples with cofactors were prepared in duplicate. Negative controls were prepared in singlet.
(§7) The reaction was started with the addition of 2 μL of 400 μM control compound or test compound solutions. Diclofenac was used as positive control in this study. The final concentration of test compound or control compound was 2 μM.
as §4

[10] = target: T3, NNMT in ovarian CAFs (Homo sapiens, UniProt P40261); experiment: 1-MNA quantification in ovarian cancer associated fibroblasts; format: cell-based; conditions: 1 μM, six day continuous treatment
T3 construct: host or cells: ovarian cancer-associated fibroblasts
T3 sequence (P40261 1-264): T1 sequence (P40261 1-264)
Procedure: as §5
1-MNA quantification in ovarian CAFs (Neuromics) was performed similarly as in K562 cells, except cells were scraped off the plate in PBS buffer after a six day continuous treatment with compound and then extracted.

[11] = Microsomal stability, human microsomes with NADPH and UDPGA (Phase II); format: in vitro ADME; conditions: human liver microsomes, NADPH & UDPGA
Procedure: as §1, §6, §7, §4

[12] = system: Ovarian Cancer Associated Fibroblasts (CAF) markers; experiment: CAF markers in ovarian CAFs (gel electrophoresis); format: cell-based, human; conditions: incubation with compound, FIG. 5
Procedure: as §5

[13] = plasma 1-MNA after inhibitor PO 50 mg/kg
[14] = PO 50 mg/kg, female C57B16/N mice, plasma
[15] = female, C57B16/N, mouse, plasma, po, 50 mg/kg
[16] = K562, read-out: Cellular Activity IC50 (K562)
[17] = plasma 1-MNA after inhibitor IV 1 mg/kg
[18] = plasma 1-MNA after inhibitor PO 10 mg/kg
[19] = read-out: Predicted hepatic Clint
[20] = IV 1 mg/kg, female C57B16/N mice
[21] = PO 10 mg/kg, female C57B16/N mice, plasma
[22] = female, C57B16/N, mouse, plasma, iv, 1 mg/kg
[23] = female, C57B16/N, mouse, plasma, po, 10 mg/kg

COc1ccc(C(N)=O)cn1 [JBSNF-000088]
IC50 ([1]; read-out: in vitro hNNMT IC50): 2400 nM
IC50 [2]: 6300 nM
IC50 [3]: 1600 nM

CNc1cc(C)c(C(N)=O)cn1 [JBSNF-000581, reference compound]
IC50 ([1]; read-out: in vitro hNNMT IC50): 840 nM

CNc1ccc(C(N)=O)cn1 [JBSNF-000265, reference compound]
microsomal CLint at 2 μM [4]: ~4.94 µL/min/mg
half-life at 2 μM [4]: ~4.67 h
Remaining (%) at 60 min [4]: 84.73%
CLhep predicted at 2 μM [4]: ~17.4 mL/min/kg
CLint scaled at 2 μM [4]: ~21.6 mL/min/kg
IC50 [2]: 2100 nM
IC50 [3]: 300 nM
AUClast of 1-MNA [5, 13]: 799 ng·h/mL
Cmax of 1-MNA [5, 13]: 39.3 ng/mL
Tmax of 1-MNA [5, 13]: 6.7 h
microsomal CLint at 2 μM [6]: ~6.84 µL/min/mg
half-life at 2 μM [6]: ~3.38 h
Remaining (%) at 60 min [6]: 81.72%
CLhep predicted at 2 μM [6]: ~6.06 mL/min/kg
CLint scaled at 2 μM [6]: ~8.57 mL/min/kg
AUC_%Extrap_obs [7, 14]: 0.0313%
AUC(0-inf) [7, 15]: 15500 ng·h/mL
AUC(0-t) [7, 15]: 15400 ng·h/mL
Cmax [7, 15]: 20900 ng/mL
MRT inf [7, 15]: 0.57 h
Tmax [7, 15]: 0.333 h
half-life [7, 15]: 1.06 h

CNc1cc(C)c(C(N)=O)cn1 [Compound 4, 4-methyl-6-(methylamino) nicotinamide]
microsomal CLint at 2 μM [4]: < 5.42 µL/min/mg
half-life at 2 μM [4]: > 4.26 h
Remaining (%) at 60 min [4]: 85.32%
CLhep predicted at 2 μM [4]: < 18.8 mL/min/kg
CLint scaled at 2 μM [4]: < 23.7 mL/min/kg
IC50 ([1]; 40 nM recombinant human NNMT, 8 μM nicotinamide, 20 min, read-out: IC50, in vitro NNMT enzyme inhibition assay): 244 nM
IC50 ([1]; read-out: in vitro hNNMT IC50): 240 nM
IC50 [8, 16]: 16 nM
IC50 ([8]; K562 cells, 24 h, 1-MNA quantification, read-out: IC50, NNMT inhibition in K562 cells): 15 nM
AUClast of 1-MNA [5, 17]: 792 ng·h/mL
Cmax of 1-MNA [5, 17]: 39.3 ng/mL
Tmax of 1-MNA [5, 17]: 16.7 h
AUClast of 1-MNA [5, 18]: 761 ng·h/mL
Cmax of 1-MNA [5, 18]: 42.4 ng/mL
Tmax of 1-MNA [5, 18]: 18.7 h
AUClast of 1-MNA [5, 13]: 678 ng·h/mL
Cmax of 1-MNA [5, 13]: 48.8 ng/mL
Tmax of 1-MNA [5, 13]: 24.0 h
microsomal CLint at 2 μM [9]: < 5.42 µL/min/mg
half-life at 2 μM ([9]; 2 μM): > 4.26 h
Remaining (%) at 60 min ([9]; 60 min): 85.18%
CLhep predicted at 2 μM [9, 19]: < 18.8 mL/min/kg
CLint scaled at 2 μM ([9]; read-out: Scaled-up CLint): < 23.7 mL/min/kg
NNMT inhibition in ovarian CAFs (1-MNA quantification) [10]: significantly inhibited NNMT
microsomal CLint at 2 μM [6]: < 5.42 µL/min/mg
half-life at 2 μM [6]: > 4.26 h
Remaining (%) at 60 min [6]: 94.54%
CLhep predicted at 2 μM [6]: < 5.12 mL/min/kg
CLint scaled at 2 μM [6]: < 6.79 mL/min/kg
microsomal CLint at 2 μM [11]: < 5.42 µL/min/mg
half-life at 2 μM ([11]; 2 μM): > 4.26 h
Remaining (%) at 60 min ([11]; 60 min): 96.85%
CLhep predicted at 2 μM [11, 19]: < 5.12 mL/min/kg
CLint scaled at 2 μM ([11]; read-out: Scaled-up CLint): < 6.79 mL/min/kg
CAF markers in ovarian CAFs [12]: reduction in CAF markers
Cl_obs [7, 20]: 62.8 mL/min/kg
Vss_obs [7, 20]: 0.786 L/kg
AUC_%Extrap_obs ([7]; IV 1 mg/kg, female C57B16/N mice, plasma): 1.63%
F_last ([7]; PO 10 mg/kg, female C57B16/N mice): 101%
AUC_%Extrap_obs [7, 21]: 0.194%
T1/2 [7, 21]: 1.11 h
F_last ([7]; PO 50 mg/kg, female C57B16/N mice): 222%
AUC_%Extrap_obs [7, 14]: 0.319%
AUClast [7, 14]: 30747 ng·h/mL
Cmax [7, 14]: 38900 ng/mL
T1/2 [7, 14]: 1.79 h
AUC(0-inf) [7, 22]: 278 ng·h/mL
AUC(0-t) [7, 22]: 273 ng·h/mL
C0 [7, 22]: 1190 ng/mL
MRT inf [7, 22]: 0.216 h
half-life [7, 22]: 0.174 h
AUC(0-inf) [7, 23]: 2810 ng·h/mL
AUC(0-t) [7, 23]: 2800 ng·h/mL
Cmax [7, 23]: 4000 ng/mL
MRT inf [7, 23]: 0.635 h
AUC(0-inf) [7, 15]: 30800 ng·h/mL
MRT inf [7, 15]: 0.695 h

CNc1cc(Cl)c(C(N)=O)cn1 [Compound 13]
microsomal CLint at 2 μM [4]: < 5.42 µL/min/mg
half-life at 2 μM [4]: > 4.26 h
Remaining (%) at 60 min [4]: 85.85%
CLhep predicted at 2 μM [4]: < 18.8 mL/min/kg
CLint scaled at 2 μM [4]: < 23.7 mL/min/kg
IC50 ([1]; read-out: in vitro hNNMT IC50): 673 nM
IC50 [8, 16]: 106 nM
microsomal CLint at 2 μM [6]: < 5.42 µL/min/mg
half-life at 2 μM [6]: > 4.26 h
Remaining (%) at 60 min [6]: 110.09%
CLhep predicted at 2 μM [6]: < 5.12 mL/min/kg
CLint scaled at 2 μM [6]: < 6.79 mL/min/kg
